# Biological target: T1, coelenterazine-binding apoprotein (apoCBP) (Renilla muelleri, UniProt C9V488)
# T1 construct: gene CBP1; recombinant apoprotein, single chain, 21 kDa
# T1 sequence (C9V488 1-186): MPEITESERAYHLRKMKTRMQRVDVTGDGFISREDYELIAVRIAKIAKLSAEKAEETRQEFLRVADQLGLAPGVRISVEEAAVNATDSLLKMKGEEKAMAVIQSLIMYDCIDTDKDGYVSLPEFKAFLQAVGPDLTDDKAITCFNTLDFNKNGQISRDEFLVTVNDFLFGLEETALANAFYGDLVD
# Test: absorption spectrum of the CBP complex
# Conditions: Ca2+-free; noncovalent
structure (smiles),measurement,value
Oc1ccc(Cc2nc3c(Cc4ccccc4)nc(-c4ccc(O)cc4)cn3c2O)cc1 [coelenterazine],absorption spectrum of the CBP complex,FMZ-apoCBP and CBP spectra obtained under the same conditions are practically identical
